According to patent publication US8846710B2, “Method of preferentially inducing the biosynthesis of interferon” (3M Innovative Properties Company, priority 2005, dated 2014):

Legend:
[1] = test system: interferon (α) (IFN-α); test: Cytokine induction in human cells: IFN-α secreted by PBMC into culture media (ELISA); assay type: cell-based; design: key to Maximal Response (pg/mL) IFN: If any negative values result from background subtraction, the reading is reported as “*”, and is noted as not reliably detectable; settings: for minimal effective concentration / Maximal Response IFN / Minimum Effective Concentration IFN: human PBMC; for minimal effective concentration: lowest tested concentration inducing IFN-α over usually 20 pg/mL, median where more than one experiment, read-out: Minimum Effective Concentration (μM) IFN; for Maximal Response (pg/mL) IFN: maximal response in dose response curve, median; for Maximal Response IFN / Minimum Effective Concentration IFN: median where tested in more than one experiment
How it was run: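 IFN-α secreted by density-gradient-isolated PBMC (final 2×10^6 cells/mL) was quantified by ELISA after 18–24 h compound exposure at 37 °C, typically 30-0.014 μM in 3-fold steps with ≤1% DMSO. Readings corrected for background and reference-compound variability; lowest concentration above usually 20 pg/mL reported, plus maximal response (pg/mL).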

[2] = test system: tumor necrosis factor (α) (TNF-α); test: Cytokine induction in human cells: TNF-α secreted by PBMC into culture media (ORIGEN M-Series immunoassay); assay type: cell-based; design: key to Maximal Response (pg/mL) TNF / Maximal Response TNF: If any negative values result from background subtraction, the reading is reported as “*”, and is noted as not reliably detectable; settings: for minimal effective concentration / Minimum Effective Concentration TNF / Maximal Response TNF: human PBMC; for minimal effective concentration: lowest tested concentration inducing TNF-α over usually 40 pg/mL, median where more than one experiment, read-out: Minimum Effective Concentration (μM) TNF; for Maximal Response (pg/mL) TNF: maximal response in dose response curve; for Maximal Response (pg/mL) TNF / Maximal Response TNF: median; for Minimum Effective Concentration TNF: median where tested in more than one experiment
How it was run: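 Secreted TNF-α (pg/mL) was quantified by ORIGEN M-Series immunoassay after 18 to 24 hours culture at 37° C of human PBMC (2×10^6 cells/mL final) with test compound (usually 30-0.014 μM, 3-fold series, DMSO ≤1%). Values were corrected for DMSO or experimental background and a reference-compound ratio, giving a minimum effective concentration.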

[3] = Table 10, * = below experimental background level
[4] = Table 11, * = TNF below experimental background of 40 pg/mL
[5] = Table 12, * = below the experimental background of 40 pg/mL
[6] = Table 7, background-subtracted, reference-adjusted

SMILES | Maximal Response IFN ([1]; Table 11) [pg/mL] | Minimum Effective Concentration IFN ([1]; Table 11) [µM] | Minimum Effective Concentration TNF ([2]; Table 11) [µM] | Maximal Response TNF [2, 4] | other results
CCOCc1nc2c(N)nc3cc(-c4cccnc4)ccc3c2n1CCCCNC(=O)NC1CCCC1 [Analog 33] | – | – | – | – | minimal effective concentration ([1]; Table 10): 0.014 µM; Maximal Response (pg/mL) IFN [1, 3]: 925 pg/mL; minimal effective concentration ([2]; Table 10): 1.11 µM; Maximal Response (pg/mL) TNF [2, 3]: 1618 pg/mL
CCCCCCCCCCCCCCCC(=O)NCCOCCn1c(CCO)nc2c(N)nc3ccccc3c21 [Example 140] | 673 | 1.11 | >30 | * | –
COCCc1nc2c(N)nc3cc(-c4cccnc4)ccc3c2n1CC(C)C [Analog 25] | – | – | – | – | minimal effective concentration ([1]; Table 10): 0.014 µM; Maximal Response (pg/mL) IFN [1, 3]: 1199 pg/mL; minimal effective concentration ([2]; Table 10): 0.04 µM; Maximal Response (pg/mL) TNF [2, 3]: 3151 pg/mL
CC(C)Cn1c(CO)nc2c(N)nc3cccnc3c21 [Example 633, [4-Amino-1-(2-methylpropyl)-1H-imidazo[4,5-c][1,5]naphthyridin-2-yl]methanol] | – | – | – | – | Maximal Response IFN ([1]; Table 12): 1592 pg/mL; Maximal Response TNF [2, 5]: 363 pg/mL
CCOCc1nc2c(N)nc3cccnc3c2n1CC(C)(C)NC(=O)C1CCCCC1 [Analog 129, N-[2-(4-amino-2-ethoxymethyl-1H-imidazo[4,5-c][1,5]naphthyridin-1-yl)-1,1-dimethylethyl]cyclohexanecarboxamide] | – | – | – | – | Maximal Response IFN ([1]; Table 12): 1647 pg/mL; Maximal Response TNF [2, 5]: 8691 pg/mL
CC(C)(F)Cn1c(CO)nc2c(N)nc3cccnc3c21 [Example 551, [4-Amino-1-(2-fluoro-2-methylpropyl)-1H-imidazo[4,5-c][1,5]naphthyridin-2-yl]methanol] | – | – | – | – | Maximal Response IFN ([1]; Table 12): 1833 pg/mL; Maximal Response TNF [2, 5]: 1922 pg/mL
COCCc1nc2c(N)nc3ccccc3c2n1CCOCCN(C)C(=O)c1ccccc1 [Analog 120] | 1394 | 0.04 | 0.37 | 3317 pg/mL | –
CCc1nc2c(N)nc3ccccc3c2n1CC(C)(C)CN [Analog 99] | 405 | 0.04 | 0.37 | 13846 pg/mL | –
CCc1nc2c(N)nc3ccccc3c2n1CCNS(C)(=O)=O [Analog 69] | 1610 | 0.12 | 10 | 820 pg/mL | –
CC(C)(CNC(=O)Nc1ccccc1)Cn1c(CCO)nc2c(N)nc3ccccc3c21 [Example 130] | 8361 | 0.014 | 3.33 | 2001 pg/mL | –
CCc1nc2c(N)nc3cc(-c4cncc(CO)c4)ccc3c2n1CC(C)(C)O [Analog 15] | – | – | – | – | minimal effective concentration ([1]; Table 10): 0.014 µM; Maximal Response (pg/mL) IFN [1, 3]: 2084 pg/mL; minimal effective concentration ([2]; Table 10): 1.11 µM; Maximal Response (pg/mL) TNF [2, 3]: 10087 pg/mL
CCCCNC(=O)NCCCn1c(COCC)nc2c(N)nc3ccccc3c21 [Analog 97] | 827 | 0.37 | 3.33 | 963 pg/mL | –
CCCc1nc2c(N)nc3ccccc3c2n1CC(C)(C)CNS(C)(=O)=O [Analog 65] | 1711 | 0.12 | 10 | 1929 pg/mL | –
CCCC(=O)NCCCCn1c(CO)nc2c(N)nc3cc(-c4cccnc4)ccc3c21 [Example 196] | – | – | – | – | minimal effective concentration ([1]; Table 10): 0.12 µM; minimal effective concentration ([2]; Table 10): > 30 µM
NCCCCn1c(CCO)nc2c(N)nc3ccccc3c21 [Example 114] | 23 | 30 | >30 | * | –
CCc1nc2c(N)nc3ccccc3c2n1CCNC(=O)CC(C)C [Analog 105] | 851 | 3.33 | 30 | 587 pg/mL | –
COCCc1nc2c(N)nc3ccccc3c2n1CCCCCCCCNC(=O)Nc1ccccc1 [Analog 117] | 1257 | 0.014 | 0.12 | 1372 pg/mL | –

SMILES | Maximal Response IFN ([1]; Table 11) [pg/mL] | Minimum Effective Concentration IFN ([1]; Table 11) [µM] | Minimum Effective Concentration TNF ([2]; Table 11) [µM] | Maximal Response TNF [2, 4] | other results
Nc1nc2cc(-c3ccncc3)ccc2c2c1nc(CCO)n2CCCN1CCCC1=O [Example 161] | – | – | – | – | minimal effective concentration ([1]; Table 10): >30 µM; Maximal Response (pg/mL) IFN [1, 3]: *; minimal effective concentration ([2]; Table 10): >30 µM; Maximal Response (pg/mL) TNF [2, 3]: *
CCOCc1nc2c(N)nc3ccccc3c2n1CCNC(=O)NC(C)C [Analog 125] | 2045 | 0.37 | 10 | 7512 pg/mL | –
CCOCc1nc2c(N)nc3ccccc3c2n1CC(C)(C)NS(C)(=O)=O [Analog 4, N-[2-(4-Amino-2-ethoxymethyl-1H-imidazo[4,5-c]quinolin-1-yl)-1,1-dimethylethyl]methanesulfonamide] | 1138 | – | – | 10665 pg/mL | Maximal Response (pg/mL) IFN [1, 6]: 889 pg/mL; Maximal Response (pg/mL) TNF [2, 6]: 10125 pg/mL
CS(=O)(=O)NCCn1c(CO)nc2c(N)nc3cccnc3c21 [Example 146, N-[2-(4-Amino-2-hydroxymethyl-1H-imidazo[4,5-c][1,5]naphthyridin-1-yl)ethyl]methanesulfonamide] | – | – | – | – | Maximal Response IFN ([1]; Table 12): 1520 pg/mL; Maximal Response TNF [2, 5]: *
CCCc1nc2c(N)nc3cccnc3c2n1CC(C)(C)O [Analog 128, 1-(4-amino-2-propyl-1H-imidazo[4,5-c][1,5]naphthyridin-1-yl)-2-methylpropan-2-ol] | – | – | – | – | Maximal Response IFN ([1]; Table 12): 2484 pg/mL; Maximal Response TNF [2, 5]: 5526 pg/mL
COCCc1nc2c(N)nc3ccccc3c2n1CC(C)(C)NS(C)(=O)=O [Analog 5, N-{2-[4-Amino-2-(2-methoxyethyl)-1H-imidazo[4,5-c]quinolin-1-yl]-1,1-dimethylethyl}methanesulfonamide] | 1308 | – | – | 13908 pg/mL | Maximal Response (pg/mL) IFN [1, 6]: 825 pg/mL; Maximal Response (pg/mL) TNF [2, 6]: 12518 pg/mL
Cc1nc2c(N)nc3ccccc3c2n1CC(C)(C)NS(C)(=O)=O [Analog 1, N-[2-(4-Amino-2-methyl-1H-imidazo[4,5-c]quinolin-1-yl)-1,1-dimethylethyl]methanesulfonamide] | – | – | – | – | Maximal Response (pg/mL) IFN [1, 6]: 1846 pg/mL; Maximal Response (pg/mL) TNF [2, 6]: 1518 pg/mL
Cc1nc2c(N)nc3ccccc3c2n1CCCN [Analog 84] | 421 | 3.33 | >30 | * | –
CCc1nc2c(N)nc3cc(-c4cccnc4)ccc3c2n1CC(C)(C)O [Analog 8, 1-(4-amino-2-ethyl-7-pyridin-3-yl-1H-imidazo[4,5-c]quinolin-1-yl)-2-methylpropan-2-ol] | – | – | – | – | Maximal Response (pg/mL) IFN ([1]; Table 9, background-subtracted, reference-adjusted): 1118 pg/mL; Maximal Response (pg/mL) IFN [1, 3]: 1652 pg/mL; Maximal Response (pg/mL) TNF ([2]; Table 9, * = below experimental background level of 40 pg/mL): 3234 pg/mL; Maximal Response (pg/mL) TNF [2, 3]: 3571 pg/mL
Cc1nc2c(N)nc3ccccc3c2n1CC(C)(C)CNS(C)(=O)=O [Analog 63] | 1019 | 0.37 | 10 | 805 pg/mL | –
COCCc1nc2c(N)nc3ccccc3c2n1CCCCCCCCNS(C)(=O)=O [Analog 118] | 1914 | 0.014 | 0.014 | 1853 pg/mL | –
Cc1ccc(-c2ccc3c(c2)nc(N)c2nc(CO)n(CC(C)(C)O)c23)cc1 [Example 165] | – | – | – | – | minimal effective concentration ([1]; Table 10): 0.37 µM; minimal effective concentration ([2]; Table 10): 0.37 µM
COCCc1nc2c(N)nc3ccccc3c2n1CCCCCCCCNC(=O)c1ccccc1 [Analog 119] | 1584 | 0.014 | 0.014 | 1995 pg/mL | –
CCCNC(=O)NCCCCn1c(CO)nc2c(N)nc3cc(-c4cccnc4)ccc3c21 [Example 195] | – | – | – | – | Maximal Response (pg/mL) IFN [1, 3]: 5089 pg/mL; Maximal Response (pg/mL) TNF [2, 3]: 81 pg/mL
CS(=O)(=O)NCCn1c(CCO)nc2c(N)nc3cccnc3c21 [Example 147, N-{2-[4-Amino-2-(2-hydroxyethyl)-1H-imidazo[4,5-c][1,5]naphthyridin-1-yl]ethyl}methanesulfonamide] | – | – | – | – | Maximal Response IFN ([1]; Table 12): 49 pg/mL; Maximal Response TNF [2, 5]: *
COCCc1nc2c(N)nc3ccccc3c2n1CCCCNC(=O)N1CCOCC1 [Analog 57] | 8889 | 0.014 | 0.04 | 3494 pg/mL | –
